# Experimental data from US20160160264A1, “DIAGNOSTIC IN VITRO METHOD” (UNIVERSITÄT ZU KÖLN, priority 2013, published 2016).
# Target: T1, recombinantly expressed and purified TPMT (Homo sapiens, UniProt P51580)
# T1 construct: made in house
# T1 sequence (P51580 1-245): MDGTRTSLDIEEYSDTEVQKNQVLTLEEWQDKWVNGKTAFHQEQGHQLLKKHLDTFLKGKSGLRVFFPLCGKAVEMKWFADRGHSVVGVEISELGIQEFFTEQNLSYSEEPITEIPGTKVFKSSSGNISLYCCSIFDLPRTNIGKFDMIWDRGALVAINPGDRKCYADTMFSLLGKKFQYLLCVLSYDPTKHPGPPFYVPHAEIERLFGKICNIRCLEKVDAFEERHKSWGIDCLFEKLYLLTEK
# Assay: Steady state kinetics with purified TPMT (substrate methylation, HPLC analysis)
# Assay type: biochemical
# Settings: compound as substrate of 3 ng/μL purified TPMT; Moco: urothione synthesis in presence of alkaline phosphatase; 6-mercaptopurine: 6-methylmercaptopurine synthesis
# Experimental: (A) Kinetics of the urothione synthesis by TPMT in the presence of alkaline phosphatase. (B) Kinetics of the 6-methylmercaptopurine synthesis by TPMT. (C) Kinetic parameters of the kinetics shown in A and B.
# The in vitro synthesis of urothione in kidney protein extracts is dependent on S-adenosylmethionine and Moco. […] Quantities used: 1.7 μg/μl kidney extract, 5 μM Moco, 500 μM SAM, 250 μM DTT in 0.1 M Tris/HCl pH7.5. The reaction was incubated for 4 h at 37° C. and then heat-denatured for 1 h at 60° for stopping and purified by means of QAE-Sepharose. The eluate was dried up and taken up in the HPLC solvent. HPLC analysis took place on a C4 Reprosil® 100 HPLC column, 150×2 mm, 5 μm particle size (Dr. Maisch GmbH) with 20 mM acetic acid and 15% methanol by isocratic elution. […] The increase of the peak at 24 min elution time indicates the formation of urothione. The increase of the peak at 31 min elution time indicates the formation of jukathione. Quantities used: 20 ng/μl TPMT, 2-16 μM Moco, 500 μM SAM, 250 μM DTT in 0.1 M Tris/HCl pH7.5. The reaction was incubated for 1 h at 37° C. and then heat-denatured for 1 h at 60° for stopping. The eluate was dried up and taken up in the HPLC solvent. HPLC analysis took place on a YMC C18 Hydrosphere@ column, 250×4 mm, 5 μm particle size with 20 mM formic acid by elution in a methanol gradient (0-25% 20 min, 1 mL/min). […] The in vitro transformation of Moco by means of liver extracts into urothione in the presence and absence of the TPMT inhibitor 3,4,5-triiodo benzoic acid is shown in FIG. 4. […] The in vitro transformation of Moco by purified TPMT into jukathione in the presence and absence of the TPMT inhibitor 3,4,5-triiodo benzoic acid is shown in FIG. 5. An HPLC chromatogram is shown of the analysis of jukathione after the incubation of purified 1 ng/μL TPMT with 500 μM SAM, 250 μM DTT and 10 μM Moco in the presence and absence of 2.5 μM 3,4,5-triiodo benzoic acid (inhibitor). […] What is depicted is the in vitro synthesis of urothione in protein extracts from RBCs from individuals with a normal TPMT activity (wild type) and persons with heterozygous mutations in the TPMT gene locus (heterozygous), and one person with a homozygous mutation (homozygous) in the TPMT gene locus. […] What is shown is the determination of the urothione content in individuals with a normal TPMT activity (wild type) and persons with heterozygous mutations in the TPMT gene locus (heterozygous), and two persons with homozygous mutations (homozygous) in the TPMT gene locus.
# Urothione detection: 10 μM Moco (isolated from heat-denaturated human sulfite oxidase) are incubated in 50 mM Tris/HCl, pH 7.2, 1 mM SAM, 250 μM dithiothreitol and 1.7 μg/μL liver protein extract or 3.4 μg/μL RBCs for 4 h at 37° C. […]
SMILES,KM,kcat
Sc1ncnc2nc[nH]c12 [6-mercaptopurine],69 µM,0.047 s⁻¹
Nc1nc2c(c(=O)[nH]1)NC1C3=C([S][Mo](=[O])(=[O])([O-])[S]3)C(COP(=O)([O-])O)OC1N2 (stereo not shown) [Moco],2 µM,0.129 s⁻¹
